Earlier results in patent US11661349B2, “Method for making coffee husk reducing agent” (Imam Abdulrahman Bin Faisal University, priority 2019, dated 2023).

Key:
Aspergillus niger = details: A. niger; from Elefanti et al. 2013
Aspergillus flavus = details: A. flavus; from Elefanti et al. 2013

OC(Cn1cncn1)(Cn1cncn1)c1ccc(F)cc1F [Flucanazole]
100 µg/mL: MFC (Minimum Fungicidal Concentration) (Aspergillus niger) | MIC (Aspergillus niger) | MFC (Minimum Fungicidal Concentration) (Aspergillus flavus) | MIC (Aspergillus flavus)
